Assay results published in patent US12533300B2, “Self-assembling peptides in the prevention and treatment of cavitated carious lesions” (Credentis AG, priority 2019, dated 2026).

Assays:
[1] = Release profile of model substance Congo Red from dental materials into PBS (photometer, 500 nm); type: physicochemical
Description: As well-known to the person skilled in the art, a release profile of an agent, i.e. fluoride or self-assembling peptide, depends on the matrix of the material (Mousavinasab et al., 2009, Dent Res J (Isfahan) 6(2):75-81). In the following experiment, the release profile of a model substance mimicking self-assembling peptide, Congo Red, was assessed after the incorporation into the dental material. The material was prepared and applied as per instructions for use (IFU), usually describing the use of 0.5-0.75 mL of the respective products. To mimic the saliva, Phosphate Buffered Saline (PBS) was used. PBS matches the osmolarity and ion concentrations of the human body—it is isotonic. To mimic the constant saliva flux, the applied amount was placed in a solution equal to 1 h saliva flux, which is about 20 mL. The diffusion of the material was assessed at 500 nm with a photometer. Release Profile a) Preparation of Varnish (Duraphat) and Paro Amin Fluor Gelée • Per suppliers IFU, it is recommend to add 0.5-1 mL of the varnish to a carious site. The concentration of Congo Red was chosen to lead a distinct signal in the UV Vis. • Place 12 mg Congo Red in 2 mL Eppendorf tube • Add 2 mL of the varnish directly into the tube with a syringe • Mix Congo Red and varnish vigorously until content uniformity is reached • Pick up product with syringe • Place 0.5-0.75 ml of the product on a microscopic slide as a thin film—as recommended per IFU • Let it air dry—as per IFU b) Preparation of Lonofil (Glass Ionomer Restorative Material) • Place 12 mg Congo Red directly in a dental cup • Add 2 spoons of lonofil Plus as per IFU • Add 2 drops of water and mix as per IFU • Place amount of product on microscopic slide c) Incubation Prepare the PBS Solution with 1% EtOH for preservation • Place slide in 50 ml centrifugation tube • Add 20 mL of PBS • Place on rotating wheel d) Measurement and Calculation • Directly decant 1 mL of incubated fluid into UV-Cell • Measure at 500 nm, control/blank=PBS with 1% EthOH subtract control w/o Congo Red from measured value

[2] = Alkilzy et al., 2018; cited from earlier work
[3] = Release profile of P11-4 from varnish and glass ionomer cement (280 nm); type: physicochemical
Description: The material was prepared and applied as per instructions for use (IFU), usually describing the use of 0.5-0.75 mL of the respective products. To mimic the saliva, Phosphate Buffered Saline (PBS) was used. PBS matches the osmolarity and ion concentrations of the human body—it is isotonic. To mimic the constant saliva flux, the applied amount was placed in a solution equal to 1 h saliva flux, which is about 20 mL. The diffusion of the material was assessed at 500 nm with a photometer.
Release Profile a) Preparation of Varnish (Duraphat) and Paro Amin Fluor Gelée • Per suppliers IFU, it is recommend to add 0.5-1 mL of the varnish to a carious site. The concentration of Congo Red was chosen to lead a distinct signal in the UV Vis. • Place 12 mg Congo Red in 2 mL Eppendorf tube • Add 2 mL of the varnish directly into the tube with a syringe • Mix Congo Red and varnish vigorously until content uniformity is reached • Pick up product with syringe • Place 0.5-0.75 ml of the product on a microscopic slide as a thin film—as recommended per IFU • Let it air dry—as per IFU b) Preparation of Lonofil (Glass Ionomer Restorative Material) • Place 12 mg Congo Red directly in a dental cup • Add 2 spoons of lonofil Plus as per IFU • Add 2 drops of water and mix as per IFU • Place amount of product on microscopic slide c) Incubation
Prepare the PBS Solution with 1% EtOH for preservation • Place slide in 50 ml centrifugation tube • Add 20 mL of PBS • Place on rotating wheel d) Measurement and Calculation • Directly decant 1 mL of incubated fluid into UV-Cell • Measure at 500 nm, control/blank=PBS with 1% EthOH subtract control w/o Congo Red from measured value
Example 7 was in essence carried out as Example 6, but with the self-assembling peptide P11-4, if not otherwise described. 12 mg of P11-4 (credentis AG), in monomeric form, were added to either the varnish Duraphat (Sample ID: AP) or the glass ionomer cement Aqua lonofil Plus (Sample ID BP) in the amounts and under the conditions described above. The incubation was carried out in a static manner at room temperature. Measurement was at 280 nm, and the control value for buffer without peptide was subtracted from the measured value.

[4] = Pulp capping with P11-4 solution under dental material; type: in vivo; settings: exposed pulp covered with P11-4 solution (e.g., 100 μl, 10 mg/mL, pH 8) before Resin Composite
Description: A cavity exposing the pulp is excavated due to dental caries. The pulp is covered with P11-4 solution (e.g., 100 μl, 10 mg/mL, pH 8) before placing of a dental material, e.g., Resin Composite according to the manufacturer's instructions (e.g., application in layers and light curing, as appropriate).

Time course of Congo Red release from glass ionomer cement ([1]; Aqua Ionofil Plus, FIG. 4A)	Speed of Congo Red release from varnish relative to glass ionomer cement ([1]; Duraphat versus Aqua Ionofil Plus, FIG. 4A)	Release of Congo Red from paro Amin Fluor Gelée ([1]; Sample 2, used for comparison, 20 mL PBS with 1% EtOH, FIG. 4B)	Release of Congo Red from varnish Duraphat ([1]; sample A1, 12 mg Congo Red in 2 mL varnish, 20 mL PBS with 1% EtOH, FIG. 4A)	Release of Congo Red from glass ionomer cement Aqua Ionofil Plus ([1]; sample B1, 12 mg Congo Red, 20 mL PBS with 1% EtOH, FIG. 4A)	Compound	Effect on early carious lesions in combination with fluoride, compared to fluoride alone [2]	Speed of P11-4 release from varnish relative to glass ionomer cement ([3]; Duraphat versus Aqua Ionofil Plus, FIG. 4C)	Release of P11-4 from varnish Duraphat ([3]; sample AP, 12 mg monomeric P11-4, static incubation at room temperature, FIG. 4C)	Release of P11-4 from glass ionomer cement Aqua Ionofil Plus ([3]; sample BP, 12 mg monomeric P11-4, static incubation at room temperature, FIG. 4C)	Amount of released peptide over time ([3]; varnish and glass ionomer cement, measured for several days)	Pulp symptoms (pulpitis) after pulp capping [4]
constant and increases with time	quicker	released	released	released	Nc1c(/N=N/c2ccc(-c3ccc(/N=N/c4cc(S(=O)(=O)O)c5ccccc5c4N)cc3)cc2)cc(S(=O)(=O)O)c2ccccc12 [Congo red, Congo Red]						
					P11-4: self-assembling peptide, sequence QQRFEWEFEQQ (P11-4)	additional effect	quicker	slowly and substantially constantly released	slowly and substantially constantly released	increases with time	remains symptoms free
